Laboratory results from US9107876B2, “Surface anesthetic agent” (YAMAGUCHI UNIVERSITY, priority 2009, dated 2015).

Test system: buccal mucosal membrane
Assay: Needle stab after applying the surface anesthetic agent to the buccal mucosal membrane: time for the painless effect to be exerted
Type: in vivo
Conditions: 200 mg applied with a cotton swab to the buccal mucosal membrane, then a needle stabbed
Description: Various surface anesthetic agents mentioned above were applied to the buccal mucosal membrane, and then a needle was stabbed, and the time for the painless effect to be exerted and the time for the pain to start again were measured.
(1) As a sample of tetracaine alone, 200 mg (12 mg tetracaine) COPALON was attached to a cotton swab, and applied to the buccal mucosal membrane.
(2) As a sample of lidocaine alone, 200 mg Xylocaine jelly (4 mg lidocaine) was attached to a cotton swab, and applied to the buccal mucosal membrane.
(3) As a sample of a combination use of tetracaine and lidocaine, various mixtures of tetracaine and lidocaine in 92:8, 82:18, 67:33 and 43:57 mass ratios were prepared by varying the blending ratio of COPALON and Xylocaine jelly to 80:20, 60:40, 40:60 and 20:80. 200 mg of each of the prepared mixtures was attached to a cotton swab, and applied to the buccal mucosal membrane. […]
Various surface anesthetic agents containing tetracaine and/or lidocaine mentioned above were applied to the buccal mucosal membrane, and then a needle was stabbed, and the time for the painless effect to be exerted and the time for the pain to start again were measured.

CCN(CC)CC(=O)Nc1c(C)cccc1C [Comparative Example 1-2, 2-(diethylamino)-N-(2,6-dimethylphenyl) acetamide]
time for the painless effect to be exerted after the application: 5 min
